Reference: publication PMC10749895, “ppGpp accumulation reduces the expression of the global nitrogen homeostasis-modulating NtcA regulon by affecting 2-oxoglutarate levels” (Communications Biology, 2023)

Tests used:
[1] = molecular target: T1, Synpcc7942_0903 (aconitase, ACN) (Synechococcus elongatus, UniProt Q31PT6); assay: aconitase activity, cis-aconitate formation at […] nm; type: biochemical; details: 0.25-10 µM ppGpp, 10 min preincubation; 1 mM citrate, 100 mM potassium phosphate pH 8.0, 30 °C, anaerobic; inhibitor
T1 construct: full-length gene in pET28a (NdeI/HindIII), N-terminal His6-tag, E. coli BL21-CodonPlus(DE3)-RIL, Ni column, purified anaerobically

[2] = molecular target: T1, Synpcc7942_0903 (aconitase, ACN); assay: as above; type: biochemical; details: 1 mM citrate, 100 mM potassium phosphate pH 8.0, 30 °C, anaerobic

Structure (SMILES)	relative activity (% of activity without ppGpp) at maximum inhibition [1]	aconitase activity, cis-aconitate formation at 240 nm [2]
Nc1nc2c(ncn2[C@@H]2O[C@H](COP(=O)(O)OP(=O)(O)O)[C@@H](OP(=O)(O)OP(=O)(O)O)[C@H]2O)c(=O)[nH]1 [ppGpp]	~ 63	
O=C(O)CC(O)(CC(=O)O)C(=O)O [citrate]		monitoring the formation of cis-aconitate in a reaction mixture containing
